The text below walks through data of US11180462B2, “Microbiocidal oxadiazole derivatives” (SYNGENTA PARTICIPATIONS AG, priority 2015, dated 2021).

This experiment concerns Glomerella lagenarium (Colletotrichum lagenarium). Description: Fungicidal activity against Glomerella lagenarium (Colletotrichum lagenarium) liquid culture / cucumber / preventative (anthracnose). The experiment is classed as cell-based. The conditions noted are these: Colletotrichum orbiculare; 20 ppm in the applied formulation; liquid culture (PDB), growth inhibition measured photometrically after 3 to 4 days; compared to untreated control; read-out: disease control. The procedure:
Mycelia fragments or conidia suspensions of a fungus prepared either freshly from liquid cultures of the fungus or from cryogenic storage, are directly mixed into nutrient broth. DMSO solutions of the test compound (max. 10 mg/ml) are diluted with 0.025% Tween20 by a factor of 50 and 10 μl of this solution is pipetted into a microtiter plate (96-well format). The nutrient broth containing the fungal spores/mycelia fragments is then added to give an end concentration of the tested compound. The test plates are incubated in the dark at 24° C. and 96% relative humidity. The inhibition of fungal growth is determined photometrically after 2 to 7 days, depending on the pathosystem, and percent antifungal activity relative to the untreated check is calculated.
Fungicidal activity against Glomerella lagenarium (Colletotrichum lagenarium) liquid culture/cucumber/Preventative (Anthracnose)
Conidia of the fungus from cryogenic storage are directly mixed into nutrient broth (PDB—potato dextrose broth). After placing a (DMSO) solution of test compound into a microtiter plate (96-well format), the nutrient broth containing the fungal spores is added.
The following compounds at 20 ppm in the applied formulation give at least 80% disease control in this test when compared to untreated control under the same conditions, which show extensive disease development.
As for `CCCON(Cc1ccc(-c2noc(C(F)(F)F)n2)cc1)C(=O)C1CC1` [Compound 1.319, N-propoxy-N-[[4-[5-(trifluoromethyl)-1,2,4-oxadiazol-3-yl]phenyl]methyl]-cyclopropane-carboxamide], the inhibition of growth at 20 ppm is at least 80%.

For `O=C(C1CC1)N(Cc1ccc(-c2noc(C(F)(F)F)n2)cc1)OCC=C(Cl)Cl` [Compound 1.548, N-(3,3-dichloroallyloxy)-N-[[4-[5-(trifluoromethyl)-1,2,4-oxadiazol-3-yl]phenyl]methyl]-cyclopropane-carboxamide], the inhibition of growth at 20 ppm was at least 80%.

As for `CON(C(=O)C=CC(C)=O)C(C)c1ccc(-c2noc(C(F)(F)F)n2)cc1` (stereo not drawn) [Compound 1.272, N-methoxy-4-oxo-N-[1-[4-[5-(trifluoromethyl)-1,2,4-oxadiazol-3-yl]phenyl]ethyl]pent-2-enamide], the inhibition of growth at 20 ppm is at least 80%.

Regarding `CC1(C(=O)N(Cc2ccc(-c3noc(C(F)(F)F)n3)cc2)OCC=C(Cl)Cl)COC1` [Compound 1.544, N-(3,3-dichloroallyloxy)-3-methyl-N-[[4-[5-(trifluoromethyl)-1,2,4-oxadiazol-3-yl]phenyl]methyl]-oxetane-3-carboxamide], the inhibition of growth at 20 ppm was at least 80%.

Consider `N#CCC(=O)N(Cc1ccc(-c2noc(C(F)(F)F)n2)cc1)Cc1ccco1` [Compound 1.470, 2-cyano-N-(2-furylmethyl)-N-[[4-[5-(trifluoromethyl)-1,2,4-oxadiazol-3-yl]phenyl]methyl]-acetamide], for which the inhibition of growth at 20 ppm is at least 80%.

For `CON(C(=O)C1CCC1)C(C)c1ccc(-c2noc(C(F)(F)F)n2)cc1` (stereo not drawn) [Compound 1.262, N-methoxy-N-[1-[4-[5-(trifluoromethyl)-1,2,4-oxadiazol-3-yl]pheny1]ethyl]-cyclobutane-carboxamide], the inhibition of growth at 20 ppm is at least 80%.

`CC=C(C)C(=O)N(OC)C(C)c1ccc(-c2noc(C(F)(F)F)n2)cc1` (stereo not drawn) [Compound 1.255, N-methoxy-2-methyl-N-[1-[4-[5-(trifluoromethyl)-1,2,4-oxadiazol-3-yl]phenyl]ethyl]but-2-enamide]: the inhibition of growth at 20 ppm is at least 80%.

Regarding `CCC(C)N(Cc1ccc(-c2noc(C(F)(F)F)n2)cc1)C(=O)C1(F)CC1` (stereo not drawn) [Compound 1.393, 1-fluoro-N-sec-butyl-N-[[4-[5-(trifluoromethyl)-1,2,4-oxadiazol-3-yl]phenyl]methyl]-cyclopropane-carboxamide], the inhibition of growth at 20 ppm is at least 80%.

For `CCC(CC(=O)N(Cc1ccc(-c2noc(C(F)(F)F)n2)cc1)C1CC1)C(F)(F)F` (stereo not drawn) [Compound 1.148, N-cyclopropyl-3-(trifluoromethyl)-N-[[4-[5-(trifluoromethyl)-1,2,4-oxadiazol-3-yl]phenyl]methyl]-pentanamide], the inhibition of growth at 20 ppm was at least 80%.

`CON(Cc1ccc(-c2noc(C(F)(F)F)n2)cc1)C(=O)OCC(C)C` [Compound 2.8, isobutyl N-methoxy-N-[[4-[5-(trifluoromethyl)-1,2,4-oxadiazol-3-yl]phenyl]methyl]-carbamate]: the inhibition of growth at 20 ppm is at least 80%.

In the case of `CON(Cc1ccc(-c2noc(C(F)(F)F)n2)cc1)C(=O)C(F)(F)F` [Compound 1.780, 2,2,2-trifluoro-N-methoxy-N-[[4-[5-(trifluoromethyl)-1,2,4-oxadiazol-3-yl]phenyl]methyl]-acetamide], the inhibition of growth at 20 ppm was at least 80%.

On to `CON(C(=O)C1(F)CC1)C(C)c1ccc(-c2noc(C(F)(F)F)n2)cc1` (stereo not drawn) [Compound 1.271, 1-fluoro-N-methoxy-N-[1-[4-[5-(trifluoromethyl)-1,2,4-oxadiazol-3-yl]phenyl]ethyl]-cyclopropane-carboxamide], for which the inhibition of growth at 20 ppm was at least 80%.

For the molecule `CCCON(Cc1ccc(-c2noc(C(F)(F)F)n2)cc1)C(=O)C1CC1C` (stereo not drawn) [Compound 1.299, 2-methyl-N-propoxy-N-[[4-[5-(trifluoromethyl)-1,2,4-oxadiazol-3-yl]phenyl]methyl]-cyclopropane-carboxamide], the inhibition of growth at 20 ppm is at least 80%.

For `CCCON(Cc1ccc(-c2noc(C(F)(F)F)n2)cc1)C(=O)C1CC1(F)F` (stereo not drawn) [Compound 1.286, 2,2-difluoro-N-propoxy-N-[[4-[5-(trifluoromethyl)-1,2,4-oxadiazol-3-yl]phenyl]methyl]-cyclopropane-carboxamide], the inhibition of growth at 20 ppm is at least 80%.

For `O=C(N(Cc1ccc(-c2noc(C(F)(F)F)n2)cc1)C1CC1)C1(c2ccccc2)CC1` [Compound 1.96, N-cyclopropyl-1-phenyl-N-[[4-[5-(trifluoromethyl)-1,2,4-oxadiazol-3-yl]phenyl]methyl]-cyclopropane-carboxamide], the inhibition of growth at 20 ppm is at least 80%.

As to `C=CCCC(=O)N(Cc1ccc(-c2noc(C(F)(F)F)n2)cc1)CC1CC1` [Compound 1.208, N-(cyclopropylmethyl)-N-[[4-[5-(trifluoromethyl)-1,2,4-oxadiazol-3-yl]phenyl]methyl]-pent-4-enamide], the inhibition of growth at 20 ppm was at least 80%.

As to `CC(C)C(=O)N(Cc1ccc(-c2noc(C(F)(F)F)n2)cc1)OCC=C(Cl)Cl` [Compound 1.539, N-(3,3-dichloroallyloxy)-2-methyl-N-[[4-[5-(trifluoromethyl)-1,2,4-oxadiazol-3-yl]phenyl]methyl]-propanamide], the inhibition of growth at 20 ppm was at least 80%.

As to `C#CCN(Cc1ccc(-c2noc(C(F)(F)F)n2)cc1)C(=O)C1(C)CC1(Cl)Cl` (stereo not drawn) [Compound 1.174, 2,2-dichloro-1-methyl-N-prop-2-ynyl-N-[[4-[5-(trifluoromethyl)-1,2,4-oxadiazol-3-yl]phenyl]methyl]-cyclopropane-carboxamide], the inhibition of growth at 20 ppm was at least 80%.

As for `CON(C(=O)CC(F)(F)F)C(C)c1ccc(-c2noc(C(F)(F)F)n2)cc1` (stereo not drawn) [Compound 1.277, 3,3,3-trifluoro-N-methoxy-N-[1-[4-[5-(trifluoromethyl)-1,2,4-oxadiazol-3-yl]phenyl]ethyl]-propanamide], the inhibition of growth at 20 ppm is at least 80%.

Take `O=C(CCC(F)(F)F)N(Cc1ccc(-c2noc(C(F)(F)F)n2)cc1)CC1CC1` [Compound 1.213, N-(cyclopropylmethyl)-4,4,4-trifluoro-N-[[4-[5-(trifluoromethyl)-1,2,4-oxadiazol-3-yl]phenyl]methyl]-butanamide]: the inhibition of growth at 20 ppm is at least 80%.

`COCCCC(=O)N(Cc1ccc(-c2noc(C(F)(F)F)n2)cc1)OCc1ccc(Cl)cc1` [Compound 1.555, N-[(4-chlorophenyl)-methoxy]-4-methoxy-N-[[4-[5-(trifluoromethyl)-1,2,4-oxadiazol-3-yl]phenyl]methyl]-butanamide]: the inhibition of growth at 20 ppm was at least 80%.

In the case of `CCCON(Cc1ccc(-c2noc(C(F)(F)F)n2)cc1)C(=O)C1(F)CC1` [Compound 1.307, 1-fluoro-N-propoxy-N-[[4-[5-(trifluoromethyl)-1,2,4-oxadiazol-3-yl]phenyl]methyl]-cyclopropane-carboxamide], the inhibition of growth at 20 ppm was at least 80%.

With `C#CCN(Cc1ccc(-c2noc(C(F)(F)F)n2)cc1)C(=O)Cc1ccccc1OC` [Compound 1.179, 2-(2-methoxyphenyl)-N-prop-2-ynyl-N-[[4-[5-(trifluoromethyl)-1,2,4-oxadiazol-3-yl]phenyl]methyl]-acetamide], the inhibition of growth at 20 ppm was at least 80%.

With `O=C(C1OCCO1)N(Cc1ccc(-c2noc(C(F)(F)F)n2)cc1)OCc1ccc(Cl)cc1` [Compound 1.560, N-[(4-chlorophenyl)-methoxy]-N-[[4-[5-(trifluoromethyl)-1,2,4-oxadiazol-3-yl]phenyl]methyl]-1,3-dioxolane-2-carboxamide], the inhibition of growth at 20 ppm was at least 80%.

With `CC=CC(=O)N(Cc1ccc(-c2noc(C(F)(F)F)n2)cc1)OCCC` [Compound 1.285, N-propoxy-N-[[4-[5-(trifluoromethyl)-1,2,4-oxadiazol-3-yl]phenyl]methyl]but-2-enamide], the inhibition of growth at 20 ppm is at least 80%.

As for `O=C(Cc1ccccc1)N(Cc1ccc(-c2noc(C(F)(F)F)n2)cc1)CC1CC1` [Compound 1.228, N-(cyclopropylmethyl)-2-phenyl-N-[[4-[5-(trifluoromethyl)-1,2,4-oxadiazol-3-yl]phenyl]methyl]-acetamide], the inhibition of growth at 20 ppm was at least 80%.

As to `CON(Cc1ccc(-c2noc(C(F)(F)F)n2)cc1)C(=O)OCCCCCl` [Compound 2.13, 4-chlorobutyl N-methoxy-N-[[4-[5-(trifluoromethyl)-1,2,4-oxadiazol-3-yl]phenyl]methyl]-carbamate], the inhibition of growth at 20 ppm was at least 80%.

Turning to `CCCON(Cc1ccc(-c2noc(C(F)(F)F)n2)cc1)C(=O)CCC` [Compound 1.288, N-propoxy-N-[[4-[5-(trifluoromethyl)-1,2,4-oxadiazol-3-yl]phenyl]methyl]-butanamide], the inhibition of growth at 20 ppm is at least 80%.

On to `CCC(C)N(Cc1ccc(-c2noc(C(F)(F)F)n2)cc1)C(=O)C=CC(F)(F)F` (stereo not drawn) [Compound 1.382, 4,4,4-trifluoro-N-sec-butyl-N-[[4-[5-(trifluoromethyl)-1,2,4-oxadiazol-3-yl]phenyl]methyl]but-2-enamide], for which the inhibition of growth at 20 ppm is at least 80%.

For the molecule `CCC(C)N(Cc1ccc(-c2noc(C(F)(F)F)n2)cc1)C(=O)C1CC1C` (stereo not drawn) [Compound 1.385, 2-methyl-N-sec-butyl-N-[[4-[5-(trifluoromethyl)-1,2,4-oxadiazol-3-yl]phenyl]methyl]-cyclopropane-carboxamide], the inhibition of growth at 20 ppm was at least 80%.
